Laboratory results: patent publication US7041851B2, “Fluorinated phenyl thiophenyl derivatives and their use for imaging serotonin transporters” (The Trustees of the University of Pennsylvania, priority 2002, dated 2006)

Experiments:
[1] = In vivo metabolism of [18F]ACF in rats; conditions: three rats, one hour after iv injection
Protocol: In vivo metabolism of [^18F]ACF ([^18F]25), in three rats was evaluated at one hour after iv injection.

SERT = target: T1, SERT (Rattus norvegicus, UniProt P31652); assay: Pretreatment with monoamine reuptake inhibitors, specific binding of [18F]ACF in rat brain regions; format: in vivo, rats; parameters: Tracer uptake: Cortex / Tracer uptake: Remainder / Tracer uptake: Hypothalamus / Tracer uptake: Whole brain / Tracer uptake: Blood / Tracer uptake: Cerebellum / Tracer uptake: Striatum / Tracer uptake: Hippocampus: unit not given here; conditions: for Ratio to Cerebellum: Cerebellum / Ratio to Cerebellum: Cortex / Ratio to Cerebellum: Hippocampus / Ratio to Cerebellum: Hypothalamus / Ratio to Cerebellum: Remainder / Ratio to Cerebellum: Striatum / Tracer uptake: Blood / Tracer uptake: Cerebellum / Tracer uptake: Cortex / Tracer uptake: Hippocampus / Tracer uptake: Hypothalamus / Tracer uptake: Remainder / Tracer uptake: Striatum / Tracer uptake: Whole brain: 1 h after tracer
T1 construct: from tissue; host or cells: rat brain in vivo (hypothalamus, striatum, hippocampus, cerebellum)
T1 sequence (P31652 whole entry): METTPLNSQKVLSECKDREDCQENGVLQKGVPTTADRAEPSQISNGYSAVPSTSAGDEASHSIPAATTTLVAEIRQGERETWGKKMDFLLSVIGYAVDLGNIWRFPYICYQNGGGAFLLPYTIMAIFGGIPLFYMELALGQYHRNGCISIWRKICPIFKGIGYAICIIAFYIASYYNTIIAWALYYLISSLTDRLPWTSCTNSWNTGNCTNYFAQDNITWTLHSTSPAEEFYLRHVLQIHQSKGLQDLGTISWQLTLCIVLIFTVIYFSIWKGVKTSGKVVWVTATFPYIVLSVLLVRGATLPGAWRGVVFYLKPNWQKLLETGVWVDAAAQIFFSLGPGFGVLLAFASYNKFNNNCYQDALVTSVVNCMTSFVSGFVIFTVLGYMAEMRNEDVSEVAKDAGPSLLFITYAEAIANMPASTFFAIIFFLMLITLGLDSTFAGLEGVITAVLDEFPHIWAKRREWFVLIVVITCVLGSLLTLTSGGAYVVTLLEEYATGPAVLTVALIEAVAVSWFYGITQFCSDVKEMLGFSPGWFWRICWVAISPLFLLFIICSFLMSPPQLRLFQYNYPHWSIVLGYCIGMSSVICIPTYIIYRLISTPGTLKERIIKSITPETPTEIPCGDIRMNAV

[2] = Organ distribution and brain regional uptake of [18F]ACF in rats
[3] = rats, Control (saline-pretreated)
[4] = rats, pretreated (+)McN5652 2 mg/kg iv 5 min prior
[5] = rats, pretreated Methylphenidate 2 mg/kg iv 5 min prior
[6] = rats, pretreated Nisoxetine 2 mg/kg iv 5 min prior

CN(C)Cc1ccccc1Sc1cc([18F])c(Cl)cc1N [[^18F]ACF]
Activity extracted from the brain that was original compound (HPLC) [1]: 95.5±0.40% | Percentage of organic-extractable material, kidney [1]: 20.25±0.60% | Percentage of organic-extractable material, liver [1]: 20.03±6.60% | Percentage of organic-extractable material, plasma [1]: 6.76±1.00% | Specific retention in brain regions after pretreatment (SERT; rats pretreated with methylphenidate): No significant differences | Specific retention in brain regions after pretreatment (SERT; rats pretreated with nisoxetine): No significant differences | Specific retention in hypothalamus, striatum and hippocampus after pretreatment (SERT; rats, 60 min, (+)McN5652 2 mg/Kg 5 min prior to tracer injection): significant decrease | Ratio to Cerebellum: Cerebellum (SERT; [3]): 1.00 ± 0.00 | Ratio to Cerebellum: Cortex (SERT; [3]): 1.86 ± 0.05 | Ratio to Cerebellum: Hippocampus (SERT; [3]): 2.52 ± 0.13 | Ratio to Cerebellum: Hypothalamus (SERT; [3]): 2.96 ± 0.03 | Ratio to Cerebellum: Remainder (SERT; [3]): 2.26 ± 0.03 | Ratio to Cerebellum: Striatum (SERT; [3]): 2.63 ± 0.23 | Tracer uptake: Blood (SERT; [3]): 0.26 ± 0.03 | Tracer uptake: Cerebellum (SERT; [3]): 0.21 ± 0.02 | Tracer uptake: Cortex (SERT; [3]): 0.39 ± 0.03 | Tracer uptake: Hippocampus (SERT; [3]): 0.53 ± 0.03 | Tracer uptake: Hypothalamus (SERT; [3]): 0.63 ± 0.05 | Tracer uptake: Remainder (SERT; [3]): 0.48 ± 0.04 | Tracer uptake: Striatum (SERT; [3]): 0.56 ± 0.09 | Tracer uptake: Whole brain (SERT; [3]): 0.81 ± 0.09 | Ratio to Cerebellum: Cerebellum (SERT; [4]): 1.00 ± 0.00 | Ratio to Cerebellum: Cortex (SERT; [4]): 1.43 ± 0.27 | Ratio to Cerebellum: Hippocampus (SERT; [4]): 1.93 ± 0.21 | Ratio to Cerebellum: Hypothalamus (SERT; [4]): 1.36 ± 0.15 | Ratio to Cerebellum: Remainder (SERT; [4]): 1.37 ± 0.16 | Ratio to Cerebellum: Striatum (SERT; [4]): 1.48 ± 0.32 | Tracer uptake: Blood (SERT; [4]): 0.26 ± 0.03 | Tracer uptake: Cerebellum (SERT; [4]): 0.17 ± 0.03 | Tracer uptake: Cortex (SERT; [4]): 0.24 ± 0.02 | Tracer uptake: Hippocampus (SERT; [4]): 0.34 ± 0.06 | Tracer uptake: Hypothalamus (SERT; [4]): 0.24 ± 0.03 | Tracer uptake: Remainder (SERT; [4]): 0.23 ± 0.01 | Tracer uptake: Striatum (SERT; [4]): 0.25 ± 0.03 | Tracer uptake: Whole brain (SERT; [4]): 0.42 ± 0.02 | Ratio to Cerebellum: Cerebellum (SERT; [5]): 1.00 ± 0.00 | Ratio to Cerebellum: Cortex (SERT; [5]): 2.02 ± 0.21 | Ratio to Cerebellum: Hippocampus (SERT; [5]): 2.50 ± 0.15 | Ratio to Cerebellum: Hypothalamus (SERT; [5]): 3.05 ± 0.14 | Ratio to Cerebellum: Remainder (SERT; [5]): 2.23 ± 0.05 | Ratio to Cerebellum: Striatum (SERT; [5]): 2.75 ± 0.09 | Tracer uptake: Blood (SERT; [5]): 0.28 ± 0.02 | Tracer uptake: Cerebellum (SERT; [5]): 0.17 ± 0.02 | Tracer uptake: Cortex (SERT; [5]): 0.35 ± 0.03 | Tracer uptake: Hippocampus (SERT; [5]): 0.43 ± 0.03 | Tracer uptake: Hypothalamus (SERT; [5]): 0.52 ± 0.07 | Tracer uptake: Remainder (SERT; [5]): 0.38 ± 0.05 | Tracer uptake: Striatum (SERT; [5]): 0.47 ± 0.06 | Tracer uptake: Whole brain (SERT; [5]): 0.67 ± 0.04 | Ratio to Cerebellum: Cerebellum (SERT; [6]): 1.00 ± 0.00 | Ratio to Cerebellum: Cortex (SERT; [6]): 1.94 ± 0.16 | Ratio to Cerebellum: Hippocampus (SERT; [6]): 2.44 ± 0.11 | Ratio to Cerebellum: Hypothalamus (SERT; [6]): 2.89 ± 0.11 | Ratio to Cerebellum: Remainder (SERT; [6]): 2.17 ± 0.04 | Ratio to Cerebellum: Striatum (SERT; [6]): 2.50 ± 0.12 | Tracer uptake: Blood (SERT; [6]): 0.26 ± 0.01 | Tracer uptake: Cerebellum (SERT; [6]): 0.19 ± 0.01 | Tracer uptake: Cortex (SERT; [6]): 0.37 ± 0.04 | Tracer uptake: Hippocampus (SERT; [6]): 0.46 ± 0.02 | Tracer uptake: Hypothalamus (SERT; [6]): 0.55 ± 0.02 | Tracer uptake: Remainder (SERT; [6]): 0.41 ± 0.01 | Tracer uptake: Striatum (SERT; [6]): 0.47 ± 0.03 | Tracer uptake: Whole brain (SERT; [6]): 0.74 ± 0.04 | Organ distribution: Blood ([2]; 2 min after iv injection): 6.56 ± 0.64 % dose/organ | Organ distribution: Bone ([2]; 2 min after iv injection): 0.01 ± 0.00 % dose/organ | Organ distribution: Brain ([2]; 2 min after iv injection): 3.27±0.79 % dose/organ | Organ distribution: Heart ([2]; 2 min after iv injection): 1.69 ± 0.24 % dose/organ | Organ distribution: Kidney ([2]; 2 min after iv injection): 6.97 ± 0.73 % dose/organ | Organ distribution: Liver ([2]; 2 min after iv injection): 9.41 ± 1.82 % dose/organ | Organ distribution: Lung ([2]; 2 min after iv injection): 14.89 ± 2.28 % dose/organ | Organ distribution: Muscle ([2]; 2 min after iv injection): 14.34 ± 9.76 % dose/organ | Organ distribution: Skin ([2]; 2 min after iv injection): 4.76 ± 0.89 % dose/organ | Organ distribution: Spleen ([2]; 2 min after iv injection): 0.64 ± 0.20 % dose/organ | Ratio to Cerebellum: Cerebellum ([2]; 2 min after iv injection): 1.00 ± 0.00 | Ratio to Cerebellum: Cortex ([2]; 2 min after iv injection): 1.84 ± 0.43 | Ratio to Cerebellum: Hippocampus ([2]; 2 min after iv injection): 1.24 ± 0.15 | Ratio to Cerebellum: Hypothalamus ([2]; 2 min after iv injection): 1.37 ± 0.19 | Ratio to Cerebellum: Remainder ([2]; 2 min after iv injection): 1.32 ± 0.21 | Ratio to Cerebellum: Striatum ([2]; 2 min after iv injection): 1.41 ± 0.31 | Regional brain distribution: Cerebellum ([2]; 2 min after iv injection): 1.33 ± 0.51 % dose/g | Regional brain distribution: Cortex ([2]; 2 min after iv injection): 2.31 ± 0.46 % dose/g | Regional brain distribution: Hippocampus ([2]; 2 min after iv injection): 1.60 ± 0.46 % dose/g | Regional brain distribution: Hypothalamus ([2]; 2 min after iv injection): 1.76 ± 0.48 % dose/g | Regional brain distribution: Remainder ([2]; 2 min after iv injection): 1.69 ± 0.43 % dose/g | Regional brain distribution: Striatum ([2]; 2 min after iv injection): 1.78 ± 0.36 % dose/g | Organ distribution: Blood ([2]; 30 min after iv injection): 4.52 ± 0.22 % dose/organ | Organ distribution: Bone ([2]; 30 min after iv injection): 0.04 ± 0.03 % dose/organ
